Reference: US20090216158A1, “ULTRASOUND AND TISSUE REPAIR” (priority 2008, published 2009)

What was measured:
Rac1 = assay: GTPase activation assay: Rac1 effector pull-down with quantitative Western blotting; assay type: cell-based, mouse; conditions: 200 nM BIM, 30 min before and throughout stimulation; MEFs prespread on 50K
Experimental: (§1) For immunofluorescence, 13-mm diameter glass coverslips, placed into 6-well plates, were derivatized for 30 minutes with 1 mM sulpho-m-maleimidobenzoyl-N-hydrosuccinimide ester (Perbio). For spreading on mab13 monoclonal antibody, coverslips were pre-coated with 10 μg/ml goat anti-Rat IgG FC fragment (Jackson, Stratech Scientific). For biochemical assays, 6-well tissue culture-treated plastic plates (Corning BV) were coated directly with ligand. Coverslips or dishes were coated for 2 hours at room temperature with 10 μg/ml 50K, H/0, PLL or mab13 in Dulbecco's PBS containing calcium and magnesium (Lonza), and blocked with 10 mg/ml heat-denatured BSA for 30 minutes at room temperature (Humphries et al., 1986). Equivalent ligand-coating between glass and plastic was tested by ELISA using the anti-fibronectin mAb 333 (Bass et al., 2007a). To prevent de novo synthesis of ECM and other syndecan-4 ligands, cells were treated with 25 μg/ml cycloheximide (Sigma) for 2 hours prior to detachment (Couchman et al., 1983) and were then detached with 0.5 mg/ml trypsin. […] Images were compiled and analyzed using ImageJ software. The total area of adhesion complexes per cell was calculated by recording the area of fluorescence intensity above an empirically determined threshold, following rolling ball background subtraction. […]

MEFs = assay: Adhesion complex (focal adhesion) formation assay, vinculin/actin immunofluorescence; assay type: cell-based, mouse; conditions: 200 nM BIM; MEFs prespread on 50K
Experimental: as §1

human β1 integrin = target: T1, human β1 integrin (Homo sapiens, UniProt P05556); assay: Flow cytometry of integrin activity with 12G10 antibody on K562 cells; assay type: cell-based; conditions: 1 mM Mn^2+ rather than 1 mM Ca^2+, 0.5 mM Mg^2+
T1 construct: endogenous in cells; host or cells: K562 human lymphocytes
Experimental: For analysis of integrin activity by flow cytometry, K562 suspension cells were stimulated with ultrasound for 20 minutes, followed by centrifugation and re-suspension in ice cold media. Cells were stained with primary antibody (12G10), diluted to 10 μg/ml in Dulbecco's PBS containing calcium and magnesium (Lonza), 0.02% (w/v) sodium azide on ice for 1 hour. The cells were washed with PBS, 1% (v/v) fetal bovine serum, followed by 10 μg/ml secondary antibody diluted in PBS, 10% (v/v) fetal bovine serum for 30 minutes. For manganese stimulation all antibodies and wash buffers were supplemented with 1 mM MnCl2. Cells were then fixed with 2% (w/v) paraformaldehyde, and analysed on a Dako Cyan flow cytometer, using an excitation wavelength of 488 nm. A 530/30 nm bandpass filter was used to detect the emissions.

Structure (SMILES) | effect on ultrasound-induced Rac1 activation (Rac1) | effect on focal adhesion formation in response to H/0 (MEFs) | staining of K562 lymphocytes with 12G10 (β1 integrin activation epitope) (human β1 integrin)
CN(C)CCCn1cc(C2=C(c3c[nH]c4ccccc34)C(=O)NC2=O)c2ccccc21 [BIM, bisindolylmaleimide I] | did not prevent ultrasound-induced Rac1 activation | blocked focal adhesion formation in response to H/0 | 
[Cl][Mn][Cl] [Mn^2+, MnCl2] |  |  | enhanced
